Source: patent publication US20130108565A1, “TANNING ENHANCERS AND SELF-TANNING SUBSTANCES” (MERCK PATENT GESELLSCHAFT MIT BESCHRANKTER HAFTUNG, priority 2010, published 2013)
Several values for one entry are separate records, joined by “and”; a condition that tells them apart may be missing. Equal entries are not always repeated.

Key:
[1] = system: B16V mouse melanoma cells; assay: B16 V mouse melanoma cell test: melanin concentration after alpha-MSH stimulation; type: cell-based; conditions: for Relative melanin concentration (%): DMSO (0.1%) + α-MSH 10^-8 M, relative to blank DMSO + α-MSH = 100%
Procedure: Description of the performance of the B16 V mouse melanoma cell test:
B16V mouse melanoma cells (manufacturer: DSMZ; Article No.: ACC370) in RPMI medium (Invitrogen, Article No.: 31870), to which 10% of FBS (foetal bovine serum, Invitrogen, Article No: 10499044), 2 mM L-glutamine (Invitrogen, Article No: 25030) and 1 mM sodium pyruvate (Invitrogen, Article No: 11360) had additionally been added (modified RPMI medium), are transferred into a culture bottle and incubated at 37° C. and 5% CO2 for 72 h. The medium is separated off, and the cells are washed with 10 ml of D-PBS (Invitrogen, Article No. 14190) and subsequently filtered off with suction. 1 ml of HyQtase cell detachment solution (Hyclone, Article No. SV30030.01) is added to the cells. The bottle is swirled a number of times, and the HyQtase cell detachment solution is subsequently removed by suction. The cells are then incubated in the incubator at 37° C. and 5% CO2for 5 min. The cells are taken up in the modified RPMI medium (Invitrogen, Article No.: 31870), and the cell count is determined. To this end, the cells are stained with Tryptan Blue and counted in a Neubauer chamber. The cells are subsequently sown out again in the modified RPMI medium in a defined cell count of 80,000 cells per well (6-well clear plate, TCT, PS (Nunc)).
The plate is subsequently incubated at 37° C. and 5% CO2 for 24 h, the medium is then removed. 1980 μl of the isomaltulose dilution are subsequently added. For this substance dilution, the isomaltulose is dissolved in DMSO and subsequently filtered through a sterile filter (0.2 μm, Millipore, Article No. SLLG013SL). The solution is then diluted with the modified RPMI medium (in this case the FBS content in the RPMI medium is only 5%) in such a way that the isomaltulose concentration is 1 mM or 5 mM. 20 μl of an alpha-MSH solution in DMSO (alpha-melanocyte-stimulating hormone=alpha-MSH) (DMSO, Sigma, Article No.:D2650) are then added, so that the alpha-MSH concentration in the well is 10^−8 M. The plate is subsequently incubated again at 37° C. and 5% CO2 for 24 h. […]
After the final incubation period, the medium is removed by suction, and the cells are washed with 1000 μl of D-PBS (Invitrogen, Article No. 14190). […] The cell count is subsequently determined. To this end, the cells are stained with Tryptan Blue and counted in a Neubauer chamber. […] 200 μl are then pipetted as quadruple determination (per cup) into a 96-well plate (VWR, Article No. 4100636981), and the absorption at a wavelength of 405 nm is determined. […] The content of melanin can be determined in this way by means of a calibration line.
The other values were determined relative to the blank sample with dimethyl sulfoxide (DMSO) and α-MSH, whose measurement was set at 100%

[2] = system: explants from the stomach tissue of a pale-skinned person; assay: Ex-vivo study: chromametric colour measurement (L, a, b) of skin explants; parameters: species or system human; key to a / b: CIE L*a*b* colour coordinates (Minolta CR-300, D65); conditions: for L / a / b: n=3, listed as P2
Procedure: 12 explants from the stomach tissue of a pale-skinned person (type) having an average diameter of 10 mm are prepared (reference: […]-AB49). The explants are kept in a BEM medium (BIO-EC's explants medium) at 37° C. in a moist atmosphere comprising 5% of CO2. The following samples are tested: (in each case 3 explants), where the solutions of the corresponding substances used comprise 90% of water and 10% of ethanol. […] 2 μl of the respective sample are added to the explants and distributed for the first time (DO), 1 day later (D1), 2 days later (D2), 3 days later (D3) and 4 days later (D4). The colour of the explants is determined chromametrically. The measurements are carried out on addition (DO), on day 1 (D1), on day 5 (D5) and on day 11 (D11). The colour measurements are carried out using a Minolta CR-300 Chroma-meter, and the L, a and b values are read off correspondingly on the instrument. […] A colour area is present here which is viewed at a viewing angle of 2 degrees. This viewing angle is used as standard in the chromametric measurement. • Irradiation source D65, corresponding to daylight • Region of the measurement: 3 mm • Parameters used: L* a* b* The sample is placed on the bearing rail with the epidermis facing downwards. The irradiation is carried out from the underside through the area indicated (3 mm). In the colorimetric determinations <L a b>, the L value determines the contrast of the skin. If the L value drops, the skin appears darker.

[3] = D0 (on addition), single explant values
[4] = D1, 2 μl sample applied D0-D4, single explant values
[5] = D5, 2 μl sample applied D0-D4, single explant values
[6] = D11, 2 μl sample applied D0-D4, single explant values
[7] = in comparison with the untreated sample

Row | SMILES | Relative melanin concentration (%) ([1]; 1 mM) | Relative melanin concentration (%) ([1]; 5 mM) | melanin production ([1]; cell culture tests with B16V mouse melanoma cells) | L [2, 3] | a [2, 3] | b [2, 3] | L [2, 4] | a [2, 4] | b [2, 4] | L [2, 5] | a [2, 5] | b [2, 5] | L [2, 6] | a [2, 6] | b [2, 6] | skin darkness (L values) [2, 7] | skin shade, red-brown shift (a value) [2, 7]
1 | OC[C@H]1O[C@H](OC[C@H]2OC(O)(CO)[C@@H](O)[C@@H]2O)[C@H](O)[C@@H](O)[C@@H]1O (stereo partly drawn) [isomaltulose, α-D-glucopyranose-(1→6)-D-fructose (open, α- or (β-form) (isomaltulose)] | 65.0 | 58.1 | reduces melanin production | 62.89 and 62.96 and 61.62 | 2.75 and 2.19 and 3.28 | 15.88 and 18.71 and 18.43 | 63.09 and 64.04 and 62.97 | 3.72 and 2.1 and 3.32 | 16.05 and 17.73 and 17.92 | 63.79 and 62.89 and 63.61 | 2.57 and 2.67 and 3.26 | 14.33 and 17.15 and 16.3 | 65.69 and 59.72 and 60.71 | 2.41 and 3.44 and 3.59 | 12.35 and 11.35 and 11.57 | darkening of the skin | more natural skin shade
2 | O=c1cc(CO)occ1O [kojic acid, reference compound] | 71.4 | – | – | – | – | – | – | – | – | – | – | – | – | – | – | – | –
